Results from US20220144815A1, “1,3,4-OXADIAZOLES AND THEIR DERIVATIVES AS NEW ANTIFUNGAL AGENTS” (Bayer Aktiengesellschaft, priority 2018, published 2022).
Like-named read-outs stand apart in the source and are kept apart here.

Tests used:
Botrytis cinerea = assay: Example C: in vivo preventive test (grey mould) on gherkin or cabbage; conditions: 500 ppm of active ingredient, preventive spray, evaluated 4 to 5 days after inoculation, read-out: efficacy
Method: Solvent: 5% by volume of dimethyl sulfoxide • 10% by volume of acetone Emulsifier: 1 μl of Tween® 80 per mg of active ingredient The tested compounds were made soluble and homogenized in a mixture of dimethyl sulfoxide/acetone/Tween® 80 and then diluted in water to the desired concentration. The young plants of gherkin or cabbage were treated by spraying the tested compound prepared as described above. Control plants were treated only with an aqueous solution of acetone/dimethyl sulfoxide/Tween® 80. After 24 hours, the plants were contaminated by spraying the leaves with an aqueous suspension of Botrytis cinerea spores. The contaminated gherkin plants were incubated for 4 to 5 days at 17° C. and at 90% relative humidity. The contaminated cabbage plants were incubated for 4 to 5 days at 20° C. and at 100% relative humidity. The test was evaluated 4 to 5 days after the inoculation. 0% means an efficacy which corresponds to that of the control plants while an efficacy of 100% means that no disease was observed.

[1] = system: Colletotrichum lindemuthianum; assay: Example B: in vitro cell test, spore germination and mycelium growth in liquid culture; assay type: cell-based; conditions: 144 h, 20 ppm of tested compound, 6 days incubation, read-out: efficacy (inhibition of fungal growth)
Procedure, shortened: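 Compounds in DMSO (final ≤1%) added to glucose/peptone/yeast extract liquid medium containing C. lindemuthianum spores. After 6 days incubation, mycelium growth measured spectrometrically; inhibition calculated from absorbance versus compound-free control wells.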

[2] = Log P by HPLC on reversed phase columns, method [a] (EEC directive 79/831 Annex V.A8); assay type: physicochemical; conditions: reversed phase HPLC column
Procedure, shortened: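 Log P calibrated with C3–C16 straight-chain alkan-2-ones of known Log P, interpolating linearly between retention times. Method per EEC 79/831 Annex V.A8: reversed-phase LC-UV in the acidic range, water/0.1% formic acid and acetonitrile gradient from 10% to 95% acetonitrile.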

Alternaria brassicae = assay: Example E: in vivo preventive test (cabbage); conditions: 144 h, 500 ppm of tested compound, preventive spray, evaluated 6 days after inoculation, read-out: efficacy
Procedure, shortened: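 Young cabbage plants sprayed with compound in DMSO/acetone/Tween 80 diluted in water, then inoculated 24 hours later with Alternaria brassicae spore suspension. Kept 6 days at 20° C., 100% relative humidity. Efficacy scored 6 days post-inoculation: 0% as solvent-treated controls, 100% no disease.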

Phakopsora pachyrhizi = assay: Example F: in vivo preventive test (soybeans), DMSO/acetone/Tween 80; conditions: 288 h, 500 ppm of tested compound, preventive spray, soybean, evaluated 12 days after inoculation, read-out: efficacy
Procedure, shortened: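 Compounds in DMSO/acetone/Tween 80, diluted in water, were sprayed preventively onto young plants, which were spore-inoculated 24 h later. Plants were held 24 h at 24 °C and 100% RH, then 11 days at 24 °C and 70–80% RH. Scored 12 days post-inoculation: 0% = control-level disease, 100% = no disease.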

Phakosporra pachirrhizi = assay: Example A: fungicidal activity, spore germination in 96-well plates; assay type: cell-based; conditions: 4 hours at 21° C., read-out: efficacy (inhibition of the fungal germination); for inhibition at 20 ppm: 20 ppm of active ingredient; for inhibition at 30 ppm: 30 ppm of active ingredient
Method: Cryo-conserved wild-type spores of the biotroph Phakosporra pachirrhizi were humidified in dedicated chamber overnight at 18° C. in the dark. The next day, a solution of spores at 7×10^3 sp/mL was prepared in a water based growth medium (H2O+0.2 mM MOPS at pH 7+0.01% Tween 20) and spores were distributed in a 96-MTPS (final volume of 200 μL per well) thanks to a dispenser robot. Each molecule was tested at 10 doses (from 30 to 0.002 ppm final concentration) and accordingly 1.2 μL of each dilution was transferred in dedicated well to end-up with a final concentration of 0.6% DMSO. Wild-type spores and molecules were incubated for 4 hours at 21° C., and 6 images par well were then acquired with Transmitted Light images (Image Xpress Micro microscope, Molecular Devices, Objective 10×, 6 images per well). Detection and quantification of the number of germinated spores per image was performed with a dedicated in-house developed algorithm (MetaXpress software, Molecular Devices).

Puccinia recondita = assay: Example D: in vivo preventive test (brown rust on wheat); conditions: 264 h, 500 ppm of tested compound, preventive spray, evaluated 11 days after inoculation, read-out: efficacy
Method: Solvent: 5% by volume of dimethyl sulfoxide • 10% by volume of acetone Emulsifier: 1 μL of Tween® 80 per mg of active ingredient The tested compounds were made soluble and homogenized in a mixture of dimethyl sulfoxide/acetone/Tween® 80 and then diluted in water to the desired concentration. The young plants of wheat were treated by spraying the tested compound prepared as described above. Control plants were treated only with an aqueous solution of acetone/dimethyl sulfoxide/Tween® 80. After 24 hours, the plants were contaminated by spraying the leaves with an aqueous suspension of Puccinia recondita spores. The contaminated wheat plants were incubated for 24 hours at 20° C. and at 100% relative humidity and then for 10 days at 20° C. and at 70-80% relative humidity. The test was evaluated 11 days after the inoculation. 0% means an efficacy which corresponds to that of the control plants while an efficacy of 100% means that no disease was observed.

[3] = method [a], HPLC on reversed phase columns, read-out: logP
[4] = Method A: LC-UV, acidic range, 0.1% formic acid in water and acetonitrile, read-out: Log P
[5] = log P determined according to method [a] (HPLC on reversed phase columns), read-out: logP

Row | Compound | chromatographic logP [2, 5] | pest or weed control at 500 ppm (Botrytis cinerea) [%] | inhibition of growth at 20 µg/mL [1] [%] | pest or weed control at 500 µg/mL (Alternaria brassicae) [%] | pest or weed control at 500 µg/mL (Phakopsora pachyrhizi) [%] | inhibition at 20 ppm (Phakosporra pachirrhizi) [%] | pest or weed control at 500 µg/mL (Puccinia recondita) [%] | other results
1 | FC(F)c1nnc(-c2cnc(N[C@@H]3C[C@H]3c3ccccc3)nc2)o1 (racemic) [I.196, 5-[5-(difluoromethyl)-1,3,4-oxadiazol-2-yl]-N-[rac-(1R,2S)-2-phenylcyclopropyl]pyrimidin-2-amine] |  | 90 to 100 | 70 to 79 | 90 to 100 | 90 to 100 |  |  | chromatographic logP [2, 3]: 2.94
2 | O=C(O)c1ccc(-c2nnc(C(F)(F)F)s2)cc1 [I.008, 4-[5-(trifluoromethyl)-1,3,4-thiadiazol-2-yl]benzoic acid] |  |  |  |  |  | ≥ 70 |  | chromatographic logP [2, 4]: 1.41
3 | Fc1ccccc1C1(Nc2ncc(-c3nnc(C(F)F)o3)cn2)CC1 [I.144, 5-[5-(difluoromethyl)-1,3,4-oxadiazol-2-yl]-N-[1-(2-fluorophenyl)cyclopropyl]pyrimidin-2-amine] | 2.85 |  | 90 to 100 |  | 90 to 100 | ≥ 70 | 90 to 100 | 
4 | Fc1ccc(C2(Nc3ncc(-c4nnc(C(F)F)o4)cn3)CC2)cc1 [I.146, 5-[5-(difluoromethyl)-1,3,4-oxadiazol-2-yl]-N-[1-(4-fluorophenyl)cyclopropyl]pyrimidin-2-amine] | 2.75 | 90 to 100 | 70 to 79 | 90 to 100 | 90 to 100 |  | 90 to 100 | 
5 | FC(F)c1nnc(-c2cnc(NCC3(c4ccccc4)CC3)nc2)o1 [I.135, 5-[5-(difluoromethyl)-1,3,4-oxadiazol-2-yl]-N-[(1-phenylcyclopropyl)methyl]pyrimidin-2-amine] | 3.25 | 70 to 79 | 80 to 89 | 90 to 100 |  |  |  | 
6 | Fc1ccc(C(Nc2ncc(-c3nnc(C(F)F)o3)cn2)C(F)(F)F)cc1 (racemic) [I.181, 5-[5-(difluoromethyl)-1,3,4-oxadiazol-2-yl]-N-[(1RS)-2,2,2-trifluoro-1-(4-fluorophenyl)ethyl]pyrimidin-2-amine] |  | 70 to 79 | 80 to 89 |  | 90 to 100 |  | 90 to 100 | chromatographic logP [2, 3]: 3.22
7 | CCc1noc(-c2ccc(-c3nnc(C(F)(F)F)o3)cc2)n1 [I.018, 3-ethyl-5-{4-[5-(trifluoromethyl)-1,3,4-oxadiazol-2-yl]phenyl}-1,2,4-oxadiazole] |  |  |  |  |  |  |  | inhibition at 30 ppm (Phakosporra pachirrhizi): ≥ 70%; chromatographic logP [2, 4]: 3.59
8 | O=C(Nc1ccc(F)cc1F)c1ccc(-c2nnc(C(F)F)o2)cc1 [I.027, 4-[5-(difluoromethyl)-1,3,4-oxadiazol-2-yl]-N-(2,4-difluorophenyl)benzamide] |  |  |  |  |  |  |  | inhibition at 4 ppm (Phakosporra pachirrhizi; 4 ppm of active ingredient): ≥ 70%
9 | O=C(O)c1ccc(-c2nnc(C(F)(F)F)o2)cc1 [I.004, 4-[5-(trifluoromethyl)-1,3,4-oxadiazol-2-yl]benzoic acid] |  |  |  |  |  |  |  | inhibition at 30 ppm (Phakosporra pachirrhizi): ≥ 70%
10 | FC(F)c1nnc(-c2cnc(NC3(c4ccccc4)CCC3)nc2)o1 [I.134, 5-[5-(difluoromethyl)-1,3,4-oxadiazol-2-yl]-N-(1-phenylcyclobutyl)pyrimidin-2-amine] |  |  | 90 to 100 |  | 90 to 100 | ≥ 70 | 70 to 79 | chromatographic logP [2, 4]: 3.18

Further lines, with some results ahead:

Row | chromatographic logP [2, 5] | Compound | pest or weed control at 500 ppm (Botrytis cinerea) [%] | inhibition of growth at 20 µg/mL [1] [%] | pest or weed control at 500 µg/mL (Alternaria brassicae) [%] | pest or weed control at 500 µg/mL (Phakopsora pachyrhizi) [%] | inhibition at 20 ppm (Phakosporra pachirrhizi) [%] | pest or weed control at 500 µg/mL (Puccinia recondita) [%] | other results
11 | 3.84 | FC(F)(F)c1nnc(-c2cnc(NC3(c4ccccc4)CCC3)nc2)o1 [I.160, N-(1-phenylcyclobutyl)-5-[5-(trifluoromethyl)-1,3,4-oxadiazol-2-yl]pyrimidin-2-amine] |  | 80 to 89 |  | 90 to 100 | ≥ 70 |  | 
12 | 2.77 | Fc1ccccc1Nc1ncc(-c2nnc(C(F)F)s2)cn1 [I.113, 5-[5-(difluoromethyl)-1,3,4-thiadiazol-2-yl]-N-(2-fluorophenyl)pyrimidin-2-amine] | 90 to 100 |  | 90 to 100 |  |  |  | 
